The values below are quoted from earlier work in patent US7892838B2, “Method for the in vivo modification of the synthesis activity of a metabolite by means of the modification of a gene the activity of which is not the original activity” (Institut Pasteur, priority 2003, dated 2011).

In this series the test system is HIV (human immunodeficiency virus).

As for `Nc1ncnc2c1ncn2[C@H]1CC[C@@H](CO)O1` [ddA, 2′,3′-dideoxyadenosine], the “inhibition of the replication of HIV” value is given as “effectively inhibit the replication of HIV”. Take `OC[C@@H]1CC[C@H](n2cnc3c(O)ncnc32)O1` [ddI, 2′,3′-dideoxyinosine]: the “inhibition of the replication of HIV” value is recorded as “effectively inhibit the replication of HIV”.
